Format in all cases: functional
The subject of assay [1] is Aspergillus niger. As to the kind of experiment: Antifungal activity against Aspergillus niger assessed as zone of inhibition at 50 ug/well after 48 hrs by agar well diffusion method. The following applies: for zone of inhibition at 50 µg/disc: read-out: DIZ.
Assay [2] has as its system Aspergillus niger. Kind of assay: Antifungal activity against Aspergillus niger assessed as zone of inhibition at 75 ug/well after 48 hrs by agar well diffusion method. The following applies: for zone of inhibition at 75 µg/disc: read-out: DIZ.
For assay [3], the system named is Penicillium chrysogenum. As to the kind of experiment: Antifungal activity against Penicillium chrysogenum assessed as zone of inhibition at 100 ug/well after 48 hrs by agar well diffusion method. The note with it: for zone of inhibition at 100 µg/disc: read-out: DIZ.
Assay [4] concerns Aspergillus niger. Kind of assay: Antifungal activity against Aspergillus niger assessed as zone of inhibition at 100 ug/well after 48 hrs by agar well diffusion method. The note with it: for zone of inhibition at 100 µg/disc: read-out: DIZ. In general terms: Agar diffusion results depend on both activity and mobility in agar.
Assay [5] concerns Staphylococcus aureus. As to the kind of experiment: Antimicrobial activity against Staphylococcus aureus assessed as zone of inhibition at 75 ug/well after 24 hrs by agar well diffusion method. The note with it: for zone of inhibition at 75 µg/disc: read-out: DIZ.
Assay [6] deals with Staphylococcus aureus. Kind of assay: Antimicrobial activity against Staphylococcus aureus assessed as zone of inhibition at 50 ug/well after 24 hrs by agar well diffusion method. The note with it: for zone of inhibition at 50 µg/disc: read-out: DIZ.
Assay [7] concerns Klebsiella pneumoniae. Kind of assay: Antimicrobial activity against Klebsiella pneumoniae assessed as zone of inhibition at 75 ug/well after 24 hrs by agar well diffusion method. The following applies: for zone of inhibition at 75 µg/disc: read-out: DIZ.
In assay [8] the test system is Staphylococcus aureus. As to the kind of experiment: Antimicrobial activity against Staphylococcus aureus assessed as zone of inhibition at 100 ug/well after 24 hrs by agar well diffusion method. The note with it: for zone of inhibition at 100 µg/disc: read-out: DIZ.
Assay [9] has as its system Pseudomonas aeruginosa. As to the kind of experiment: Antimicrobial activity against Pseudomonas aeruginosa assessed as zone of inhibition at 50 ug/well after 24 hrs by agar well diffusion method. The note with it: for zone of inhibition at 50 µg/disc: read-out: DIZ.
In assay [10] the test system is Bacillus subtilis. As to the kind of experiment: Antimicrobial activity against Bacillus subtilis assessed as zone of inhibition at 100 ug/well after 24 hrs by agar well diffusion method. The following applies: for zone of inhibition at 100 µg/disc: read-out: DIZ.
Assay [11] has as its system Pseudomonas aeruginosa. As to the kind of experiment: Antimicrobial activity against Pseudomonas aeruginosa assessed as zone of inhibition at 100 ug/well after 24 hrs by agar well diffusion method. The note with it: for zone of inhibition at 100 µg/disc: read-out: DIZ.
For assay [12], the system named is Klebsiella pneumoniae. Kind of assay: Antimicrobial activity against Klebsiella pneumoniae assessed as zone of inhibition at 50 ug/well after 24 hrs by agar well diffusion method. The following applies: for zone of inhibition at 50 µg/disc: read-out: DIZ.
Assay [13] concerns Penicillium chrysogenum. As to the kind of experiment: Antifungal activity against Penicillium chrysogenum assessed as zone of inhibition at 50 ug/well after 48 hrs by agar well diffusion method. The following applies: for zone of inhibition at 50 µg/disc: read-out: DIZ.
For assay [14], the system named is Bacillus subtilis. As to the kind of experiment: Antimicrobial activity against Bacillus subtilis assessed as zone of inhibition at 50 ug/well after 24 hrs by agar well diffusion method. The following applies: for zone of inhibition at 50 µg/disc: read-out: DIZ.
In assay [15] the test system is Bacillus subtilis. As to the kind of experiment: Antimicrobial activity against Bacillus subtilis assessed as zone of inhibition at 75 ug/well after 24 hrs by agar well diffusion method. The note with it: for zone of inhibition at 75 µg/disc: read-out: DIZ.
For assay [16], the system named is Pseudomonas aeruginosa. Kind of assay: Antimicrobial activity against Pseudomonas aeruginosa assessed as zone of inhibition at 75 ug/well after 24 hrs by agar well diffusion method. The following applies: for zone of inhibition at 75 µg/disc: read-out: DIZ.
Assay [17] concerns Klebsiella pneumoniae. As to the kind of experiment: Antimicrobial activity against Klebsiella pneumoniae assessed as zone of inhibition at 100 ug/well after 24 hrs by agar well diffusion method. The note with it: for zone of inhibition at 100 µg/disc: read-out: DIZ.
In assay [18] the test system is Penicillium chrysogenum. As to the kind of experiment: Antifungal activity against Penicillium chrysogenum assessed as zone of inhibition at 75 ug/well after 48 hrs by agar well diffusion method. The note with it: for zone of inhibition at 75 µg/disc: read-out: DIZ.

The source made the active and inactive calls. The calls are words filed in the database; no cut-off is given here.

Results on eight compounds are retold here after ChEMBL document CHEMBL4251595, “Green approach for the synthesis of thiophenyl pyrazoles and isoxazoles by adopting 1,3-dipolar cycloaddition methodology and their antimicrobial activity” (2018).

For the compound `O=C(NS(=O)(=O)C1C(c2ccccc2)=NN(c2ccccc2)C1c1ccc([N+](=O)[O-])cc1)c1cccs1` (centres undefined), the “diameter of the inhibition zone (DIZ)” value in the assay with Aspergillus niger [1], in the assay with Staphylococcus aureus [5], in the assay with Staphylococcus aureus [6], with Pseudomonas aeruginosa [9], in the assay with Pseudomonas aeruginosa [11] and with Penicillium chrysogenum [13] was “inactive” each time. Further, the “diameter of the inhibition zone (DIZ)” value with Pseudomonas aeruginosa [16] is “inactive”. Also, the zone of inhibition at 75 µg/disc in the assay with Aspergillus niger [2] came to 12 mm; with Klebsiella pneumoniae [7] it was 11 mm; in the assay on Bacillus subtilis [15], 14 mm; in the assay on Penicillium chrysogenum [18] it was 9 mm. Moreover, the zone of inhibition at 100 µg/disc was determined as 12 mm in the assay with Penicillium chrysogenum [3]; 15 mm in the assay with Aspergillus niger [4]; 9 mm in the assay on Staphylococcus aureus [8]; 17 mm with Bacillus subtilis [10]; 13 mm in the assay on Klebsiella pneumoniae [17]. The zone of inhibition at 50 µg/disc with Klebsiella pneumoniae [12] was determined as 9 mm; in the assay on Bacillus subtilis [14], 12 mm.

Consider `Cc1ccc(C2C(S(=O)(=O)NC(=O)c3cccs3)C(c3ccccc3)=NN2c2ccccc2)cc1` (centres undefined), for which the “diameter of the inhibition zone (DIZ)” value in the assay with Aspergillus niger [1], in the assay on Penicillium chrysogenum [3], in the assay with Staphylococcus aureus [5], in the assay on Staphylococcus aureus [6], with Klebsiella pneumoniae [7] and in the assay with Staphylococcus aureus [8] was “inactive” throughout. Besides, the “diameter of the inhibition zone (DIZ)” value in the assay with Pseudomonas aeruginosa [9], in the assay with Bacillus subtilis [10], in the assay with Pseudomonas aeruginosa [11], with Klebsiella pneumoniae [12], with Penicillium chrysogenum [13] and in the assay on Bacillus subtilis [14] was “inactive” throughout. In addition, the “diameter of the inhibition zone (DIZ)” value in the assay with Bacillus subtilis [15], with Pseudomonas aeruginosa [16], in the assay on Klebsiella pneumoniae [17] and in the assay with Penicillium chrysogenum [18] was “inactive” each time. The zone of inhibition at 75 µg/disc with Aspergillus niger [2] turned out to be 8 mm. Moreover, in the assay on Aspergillus niger [4], the zone of inhibition at 100 µg/disc worked out at 10 mm.

With `O=C(NS(=O)(=O)c1c(-c2ccccc2)nn(-c2ccccc2)c1-c1ccccc1)c1cccs1`, the zone of inhibition at 50 µg/disc in the assay on Aspergillus niger [1] is 15 mm; in the assay on Staphylococcus aureus [6], 15 mm; in the assay on Pseudomonas aeruginosa [9], 9 mm; in the assay on Klebsiella pneumoniae [12] it was 18 mm; in the assay on Penicillium chrysogenum [13] it was 12 mm; in the assay on Bacillus subtilis [14] it was 22 mm. For the same compound, the zone of inhibition at 75 µg/disc is 16 mm in the assay on Aspergillus niger [2]; 18 mm in the assay with Staphylococcus aureus [5]; 20 mm in the assay with Klebsiella pneumoniae [7]; 23 mm in the assay on Bacillus subtilis [15]; 10 mm in the assay with Pseudomonas aeruginosa [16]; 14 mm in the assay with Penicillium chrysogenum [18]. Moreover, the zone of inhibition at 100 µg/disc is 16 mm with Penicillium chrysogenum [3]; 20 mm in the assay on Aspergillus niger [4]; 20 mm with Staphylococcus aureus [8]; 26 mm with Bacillus subtilis [10]; 12 mm in the assay with Pseudomonas aeruginosa [11]; 23 mm with Klebsiella pneumoniae [17].

In the case of `Cc1ccc(-c2c(S(=O)(=O)NC(=O)c3ccc(Cl)s3)c(-c3ccccc3)nn2-c2ccccc2)cc1`, the zone of inhibition at 50 µg/disc in the assay on Aspergillus niger [1] came to 16 mm; in the assay on Staphylococcus aureus [6], 12 mm; in the assay on Klebsiella pneumoniae [12] it was 15 mm; in the assay on Bacillus subtilis [14] it was 18 mm. Moreover, the zone of inhibition at 75 µg/disc in the assay with Aspergillus niger [2] was 19 mm; with Staphylococcus aureus [5], 15 mm; in the assay on Klebsiella pneumoniae [7] it was 17 mm; in the assay on Bacillus subtilis [15], 20 mm; in the assay with Penicillium chrysogenum [18], 10 mm. Moreover, the zone of inhibition at 100 µg/disc with Penicillium chrysogenum [3] turned out to be 13 mm; with Aspergillus niger [4] it was 23 mm; in the assay with Staphylococcus aureus [8], 16 mm; with Bacillus subtilis [10], 24 mm; with Pseudomonas aeruginosa [11] it was 13 mm; with Klebsiella pneumoniae [17], 20 mm. Further, the “diameter of the inhibition zone (DIZ)” value with Pseudomonas aeruginosa [9], in the assay on Penicillium chrysogenum [13] and in the assay with Pseudomonas aeruginosa [16] was “inactive” throughout.

In the case of `Cc1ccc(-c2c(S(=O)(=O)NC(=O)c3cccs3)c(-c3ccccc3)nn2-c2ccccc2)cc1`, the zone of inhibition at 50 µg/disc in the assay with Aspergillus niger [1] amounted to 12 mm; with Staphylococcus aureus [6] it was 9 mm; with Klebsiella pneumoniae [12] it was 14 mm; in the assay with Bacillus subtilis [14], 16 mm. The zone of inhibition at 75 µg/disc with Aspergillus niger [2] turned out to be 15 mm; with Staphylococcus aureus [5] it was 12 mm; in the assay on Klebsiella pneumoniae [7], 16 mm; in the assay on Bacillus subtilis [15], 18 mm; in the assay on Pseudomonas aeruginosa [16], 8 mm; in the assay on Penicillium chrysogenum [18], 8 mm. The zone of inhibition at 100 µg/disc in the assay with Penicillium chrysogenum [3] was 10 mm; in the assay on Aspergillus niger [4], 17 mm; in the assay on Staphylococcus aureus [8], 14 mm; in the assay with Bacillus subtilis [10] it was 21 mm; with Pseudomonas aeruginosa [11] it was 11 mm; with Klebsiella pneumoniae [17], 18 mm. Further, the “diameter of the inhibition zone (DIZ)” value in the assay with Pseudomonas aeruginosa [9] and with Penicillium chrysogenum [13] was “inactive” each time.

Consider `O=C(NS(=O)(=O)C1C(c2ccccc2)=NOC1c1ccc([N+](=O)[O-])cc1)c1cccs1` (centres undefined), for which the “diameter of the inhibition zone (DIZ)” value in the assay on Aspergillus niger [1], in the assay on Pseudomonas aeruginosa [9], with Pseudomonas aeruginosa [11], with Penicillium chrysogenum [13] and in the assay on Pseudomonas aeruginosa [16] was “inactive” in each case. Besides, the zone of inhibition at 75 µg/disc in the assay on Aspergillus niger [2] amounted to 10 mm; in the assay on Staphylococcus aureus [5] it was 12 mm; with Klebsiella pneumoniae [7], 10 mm; with Bacillus subtilis [15], 16 mm; in the assay on Penicillium chrysogenum [18], 8 mm. For the same compound, the zone of inhibition at 100 µg/disc stood at 10 mm with Penicillium chrysogenum [3]; 13 mm in the assay on Aspergillus niger [4]; 15 mm with Staphylococcus aureus [8]; 20 mm in the assay on Bacillus subtilis [10]; 11 mm in the assay with Klebsiella pneumoniae [17]. For the same compound, the zone of inhibition at 50 µg/disc in the assay on Staphylococcus aureus [6] turned out to be 11 mm; in the assay on Klebsiella pneumoniae [12], 9 mm; in the assay with Bacillus subtilis [14], 15 mm.

With `O=C(NS(=O)(=O)C1C(c2ccccc2)=NN(c2ccccc2)C1c1ccccc1)c1cccs1` (centres undefined), the “diameter of the inhibition zone (DIZ)” value in the assay with Aspergillus niger [1], in the assay on Aspergillus niger [2], in the assay on Penicillium chrysogenum [3], in the assay on Aspergillus niger [4], with Staphylococcus aureus [5] and in the assay with Staphylococcus aureus [6] was “inactive” in each case. The “diameter of the inhibition zone (DIZ)” value in the assay with Klebsiella pneumoniae [7], with Staphylococcus aureus [8], with Pseudomonas aeruginosa [9], in the assay on Bacillus subtilis [10], with Pseudomonas aeruginosa [11] and in the assay with Klebsiella pneumoniae [12] was “inactive” each time. The “diameter of the inhibition zone (DIZ)” value with Penicillium chrysogenum [13], in the assay on Bacillus subtilis [14], with Bacillus subtilis [15], with Pseudomonas aeruginosa [16], with Klebsiella pneumoniae [17] and in the assay with Penicillium chrysogenum [18] was “inactive” in each case.

In the case of `O=C(NS(=O)(=O)c1c(-c2ccccc2)noc1-c1ccccc1)c1ccc(Cl)s1`, the zone of inhibition at 50 µg/disc in the assay on Aspergillus niger [1] came out at 21 mm; in the assay with Staphylococcus aureus [6], 23 mm; with Pseudomonas aeruginosa [9], 17 mm; in the assay on Klebsiella pneumoniae [12], 26 mm; with Penicillium chrysogenum [13], 17 mm; with Bacillus subtilis [14] it was 30 mm. Moreover, the zone of inhibition at 75 µg/disc in the assay on Aspergillus niger [2] turned out to be 24 mm; in the assay with Staphylococcus aureus [5] it was 26 mm; with Klebsiella pneumoniae [7], 29 mm; with Bacillus subtilis [15], 32 mm; in the assay with Pseudomonas aeruginosa [16] it was 19 mm; in the assay with Penicillium chrysogenum [18], 19 mm. Besides, the zone of inhibition at 100 µg/disc in the assay on Penicillium chrysogenum [3] is 22 mm; in the assay with Aspergillus niger [4], 28 mm; in the assay on Staphylococcus aureus [8], 28 mm; with Bacillus subtilis [10], 35 mm; with Pseudomonas aeruginosa [11] it was 21 mm; with Klebsiella pneumoniae [17], 32 mm.
